The results in this text go back to US20230085307A1, “PYRIDAZINONE COMPOUND AND HERBICIDE” (NISSAN CHEMICAL CORPORATION, priority 2019, published 2023).

Molecules are shown by their SMILES.

The test system of assay [1] is chickweed. The experiment in a line: Test Example 4: herbicidal effect by soil treatment (Table 19, symbol P). The assay is classed as in vivo, common chickweed (Stellaria media). As to conditions: amount of applied herbicide 320 g/ha. Summed up: (§1)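 Soil-surface application: an emulsion agent diluted with water to the predetermined dose is sprayed uniformly over seeds lying under roughly 1.5 cm of sterilized diluvial soil. Boxes stay in a greenhouse at 25° C. to 30° C. Three weeks later, each species is graded on previously defined criteria.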

Assay [2] has as its system redroot pigweed. The experiment in a line: Test Example 5: herbicidal effect by foliage application, plastic box (Table 20, symbol N). The following applies: foliage application, 320 g/ha, three weeks after application. The assay is classed as in vivo, redroot pigweed (Amaranthus retroflexus). An outline of the steps: (§2)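 Sow seeds spot-wise in sterilized diluvial soil; cover with ~1.5 cm soil. Grow 14 days in greenhouse, 25° C. to 30° C. Spray foliage with emulsion diluted to predetermined amount. Rate effect after 3 weeks.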

The next assay relates to Italian ryegrass. Put plainly: Test Example 4: herbicidal effect by soil treatment (Table 19, symbol K). The assay is classed as in vivo, Italian ryegrass (Lolium multiflorum). As to conditions: amount of applied herbicide 320 g/ha. Summed up: as §1
A further assay has as its system persian speedwell. Put plainly: Test Example 4: herbicidal effect by soil treatment (Table 19, symbol R). It counts as in vivo, Persian speedwell (Veronica persica). The following applies: amount of applied herbicide 320 g/ha. Summed up:
as §1

In assay [3] the test system is blackgrass. The experiment in a line: Test Example 5: herbicidal effect by foliage application, plastic box (Table 20, symbol J). The assay is classed as in vivo, blackgrass (Alopecurus myosuroides). The following applies: foliage application, 320 g/ha, three weeks after application. Summed up: as §2
The subject of assay [4] is blackgrass. The experiment in a line: Test Example 4: herbicidal effect by soil treatment (Table 19, symbol J). The following applies: amount of applied herbicide 320 g/ha. It counts as in vivo, blackgrass (Alopecurus myosuroides). Summed up: as §1
Assay [5] has as its system oval-leafed pondweed. The experiment in a line: Test Example 2: herbicidal activity, application during weed generation under submerged conditions (Table 17, symbol C). The assay is classed as in vivo, oval-leafed pondweed (Monochoria vaginalis). The following applies: AAH 320 g/ha; application during weed generation, submerged conditions. An outline of the steps:
(§3)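 Effect on each weed is rated three weeks post-treatment, using the same scoring criteria as the preceding test. Plants grow from mixed-sown seed in flooded alluvial soil (4 cm water) at 25° C. to 30° C., and are treated at one to two leaves with diluted emulsion dropped onto the water.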

The next assay deals with barnyard grass. The experiment in a line: Test Example 5: herbicidal effect by foliage application, plastic box (Table 20, symbol H). It counts as in vivo, barnyard grass (Echinochloa crus-galli). As to conditions: foliage application, 320 g/ha, three weeks after application. An outline of the steps: as §2
A further assay deals with rice flat sedge. The experiment in a line: Test Example 3: herbicidal effect by foliage application, Wagner pot (Table 18, symbol E). The following applies: 320 g/ha. It counts as in vivo, rice flat sedge (Cyperus iria). An outline of the steps: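 Plants were sown in alluvial soil held under 0.1–0.5 cm standing water and grown 14 days in a greenhouse at 25–30 °C. An emulsifiable formulation, water-diluted to the set dose, was then sprayed onto the foliage, and effects were scored three weeks later using previously defined criteria.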

Another assay relates to late watergrass. Put plainly: Test Example 2: herbicidal activity, application during weed generation under submerged conditions (Table 17, symbol A). It counts as in vivo, late watergrass (Echinochloa oryzicola). As to conditions: AAH 320 g/ha; application during weed generation, submerged conditions. An outline of the steps: as §3
Assay [6] relates to oval-leafed pondweed. Put plainly: Test Example 1: herbicidal activity, application before weed generation under submerged conditions (Table 16, symbol C). The assay is classed as in vivo, oval-leafed pondweed (Monochoria vaginalis). As to conditions: 320 g/ha applied herbicide. Summed up: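 Alluvial soil was flooded to 4 cm depth, weed seeds were sown mixed and 2.5-leaf rice seedlings were transplanted. On sowing day, the compound's emulsion, diluted in water to a set dose, was applied to the water surface. Plants grew at 25–30 °C and were scored 0–5 after three weeks.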

Assay [7] deals with redroot pigweed. The experiment in a line: Test Example 4: herbicidal effect by soil treatment (Table 19, symbol N). The assay is classed as in vivo, redroot pigweed (Amaranthus retroflexus). As to conditions: amount of applied herbicide 320 g/ha. Summed up:
as §1

Another assay has as its system wild oat. Put plainly: Test Example 4: herbicidal effect by soil treatment (Table 19, symbol I). The assay is classed as in vivo, wild oat (Avena fatua). The following applies: amount of applied herbicide 320 g/ha. An outline of the steps: as §1
For assay [8], the system named is chickweed. The experiment in a line: Test Example 5: herbicidal effect by foliage application, plastic box (Table 20, symbol P). It counts as in vivo, common chickweed (Stellaria media). As to conditions: foliage application, 320 g/ha, three weeks after application. An outline of the steps: as §2
The subject of assay [9] is green foxtail. The experiment in a line: Test Example 5: herbicidal effect by foliage application, plastic box (Table 20, symbol G). It counts as in vivo, green foxtail (Setaria viridis). The following applies: foliage application, 320 g/ha, three weeks after application. Summed up: as §2
For assay [10], the system named is green foxtail. Put plainly: Test Example 4: herbicidal effect by soil treatment (Table 19, symbol G). The assay is classed as in vivo, green foxtail (Setaria viridis). As to conditions: amount of applied herbicide 320 g/ha. Summed up: as §1

Take `CCCC(=O)Oc1c(C)nn(C)c(=O)c1-c1c(-c2ccc(OC(C)C)cc2)sc2ccccc12` [1-021]: the “herbicidal effect rating, P: chickweed” value in the assay with chickweed [1] is recorded as 5 (Herbicidal rate of 90% or more (almost completely withered)). In addition, the “herbicidal effect grade, N: redroot pigweed” value in the assay on redroot pigweed [2] is 4 (Herbicidal rate of 70% or more and less than 90%). Also, in the assay on Italian ryegrass, the “herbicidal effect rating, K: Italian ryegrass” value was 1 (Herbicidal rate of 5% or more and less than 20%). Further, in the assay with persian speedwell, the “herbicidal effect rating, R: persian speedwell” value was 5 (Herbicidal rate of 90% or more (almost completely withered)). In addition, the “herbicidal effect grade, J: blackgrass” value in the assay with blackgrass [3] was 1 (Herbicidal rate of 5% or more and less than 20%). Also, the “herbicidal effect rating, J: blackgrass” value with blackgrass [4] is 0 (Herbicidal rate of 5% or less (almost no effect)). In addition, in the assay with oval-leafed pondweed [5], the “herbicidal effect rating, C: oval-leafed pondweed” value is 0 (Herbicidal rate of 5% or less (almost no effect)). Further, the “herbicidal effect grade, H: barnyard grass” value in the assay with barnyard grass is 4 (Herbicidal rate of 70% or more and less than 90%). Besides, in the assay on rice flat sedge, the “herbicidal effect on E (rice flat sedge), rating 0-5” value is given as 5 (Herbicidal rate of 90% or more (almost completely withered)). Further, the “herbicidal effect rating, A: late watergrass” value in the assay with late watergrass was 2 (Herbicidal rate of 20% or more and less than 40%). In the assay with oval-leafed pondweed [6], the “Herbicidal effect on C: oval-leafed pondweed (grade 0-5)” value was 4 (Herbicidal rate of 70% or more and less than 90%). Also, the “herbicidal effect rating, N: redroot pigweed” value in the assay with redroot pigweed [7] is recorded as 0 (Herbicidal rate of 5% or less (almost no effect)). Also, the “herbicidal effect rating, I: wild oat” value with wild oat is reported as 0 (Herbicidal rate of 5% or less (almost no effect)). Also, the “herbicidal effect grade, P: chickweed” value in the assay on chickweed [8] is recorded as 5 (Herbicidal rate of 90% or more (almost completely withered)). Besides, in the assay on green foxtail [9], the “herbicidal effect grade, G: green foxtail” value was 4 (Herbicidal rate of 70% or more and less than 90%). The “herbicidal effect rating, G: green foxtail” value with green foxtail [10] is 1 (Herbicidal rate of 5% or more and less than 20%).

For the compound `CCCCOc1ccc(-c2sc3ccccc3c2-c2c(O)c(C)nn(C)c2=O)cc1` [1-024], the “herbicidal effect rating, P: chickweed” value with chickweed [1] is 4 (Herbicidal rate of 70% or more and less than 90%). Moreover, the “herbicidal effect grade, N: redroot pigweed” value in the assay with redroot pigweed [2] is given as 5 (Herbicidal rate of 90% or more (almost completely withered)). Further, the “herbicidal effect rating, K: Italian ryegrass” value in the assay on Italian ryegrass was 0 (Herbicidal rate of 5% or less (almost no effect)). The “herbicidal effect rating, R: persian speedwell” value in the assay on persian speedwell is 4 (Herbicidal rate of 70% or more and less than 90%). Also, the “herbicidal effect grade, J: blackgrass” value in the assay with blackgrass [3] was 4 (Herbicidal rate of 70% or more and less than 90%). Besides, the “herbicidal effect rating, J: blackgrass” value in the assay with blackgrass [4] was 0 (Herbicidal rate of 5% or less (almost no effect)). The “herbicidal effect rating, C: oval-leafed pondweed” value in the assay with oval-leafed pondweed [5] is recorded as 5 (Herbicidal rate of 90% or more (almost completely withered)). Further, in the assay on barnyard grass, the “herbicidal effect grade, H: barnyard grass” value was 5 (Herbicidal rate of 90% or more (almost completely withered)). In addition, the “herbicidal effect on E (rice flat sedge), rating 0-5” value in the assay on rice flat sedge is 5 (Herbicidal rate of 90% or more (almost completely withered)). In addition, in the assay with late watergrass, the “herbicidal effect rating, A: late watergrass” value is 4 (Herbicidal rate of 70% or more and less than 90%). In the assay on oval-leafed pondweed [6], the “Herbicidal effect on C: oval-leafed pondweed (grade 0-5)” value is recorded as 5 (Herbicidal rate of 90% or more (almost completely withered)). Moreover, the “herbicidal effect rating, N: redroot pigweed” value with redroot pigweed [7] is 4 (Herbicidal rate of 70% or more and less than 90%). The “herbicidal effect rating, I: wild oat” value in the assay with wild oat is reported as 0 (Herbicidal rate of 5% or less (almost no effect)). The “herbicidal effect grade, P: chickweed” value in the assay with chickweed [8] is given as 5 (Herbicidal rate of 90% or more (almost completely withered)). In addition, the “herbicidal effect grade, G: green foxtail” value in the assay on green foxtail [9] is given as 5 (Herbicidal rate of 90% or more (almost completely withered)). Besides, in the assay with green foxtail [10], the “herbicidal effect rating, G: green foxtail” value was 0 (Herbicidal rate of 5% or less (almost no effect)).
